Experimental data: patent publication US20190350940A1, “PLATINUM COMPOUNDS, COMPOSITIONS, AND USES THEREOF” (priority 2015, published 2019)

What was measured:
[1] = biological target: CYP2C8 (Homo sapiens, UniProt P10632); assay: CYP inhibition, 2C8; type: in vitro ADME
[2] = Platinum pharmacokinetics/toxicokinetics in rat; conditions: in vivo
Experimental: Platinum in the plasma ultrafiltrate was considered free drug (non-protein bound), while the platinum in the plasma was a combination of protein bound and free drug.
Groups of 30 animals (15/sex) each received vehicle control or Compound 8 9, 14, 19, or 6 mg/kg. Groups of 20 animals (10/sex) received Compound 8 9, 14, 19, or 6 mg/kg and 6 animals (3/sex) received vehicle control in the TK portion of the study.

[3] = tested on: Calu-6 human NSCLC; assay: Calu-6 lung xenograft model; type: in vivo, mouse; conditions: mouse, in vivo
Experimental: The effect of Compound 8 was evaluated in the Calu-6 human NSCLC nude mouse (female Crl:NU(NCr)-Foxn1^nu) xenograft model.

[4] = biological target: T1, hERG (Homo sapiens, UniProt Q12809); assay: Binding to membrane preparations of hERG using a radiolabeled antagonist
T1 construct: host or cells: membrane preparations
Experimental: An in vitro evaluation of the binding of Compound 8 to membrane preparations of hERG using a radiolabeled antagonist was performed.

T1 sequence (Q12809 whole entry): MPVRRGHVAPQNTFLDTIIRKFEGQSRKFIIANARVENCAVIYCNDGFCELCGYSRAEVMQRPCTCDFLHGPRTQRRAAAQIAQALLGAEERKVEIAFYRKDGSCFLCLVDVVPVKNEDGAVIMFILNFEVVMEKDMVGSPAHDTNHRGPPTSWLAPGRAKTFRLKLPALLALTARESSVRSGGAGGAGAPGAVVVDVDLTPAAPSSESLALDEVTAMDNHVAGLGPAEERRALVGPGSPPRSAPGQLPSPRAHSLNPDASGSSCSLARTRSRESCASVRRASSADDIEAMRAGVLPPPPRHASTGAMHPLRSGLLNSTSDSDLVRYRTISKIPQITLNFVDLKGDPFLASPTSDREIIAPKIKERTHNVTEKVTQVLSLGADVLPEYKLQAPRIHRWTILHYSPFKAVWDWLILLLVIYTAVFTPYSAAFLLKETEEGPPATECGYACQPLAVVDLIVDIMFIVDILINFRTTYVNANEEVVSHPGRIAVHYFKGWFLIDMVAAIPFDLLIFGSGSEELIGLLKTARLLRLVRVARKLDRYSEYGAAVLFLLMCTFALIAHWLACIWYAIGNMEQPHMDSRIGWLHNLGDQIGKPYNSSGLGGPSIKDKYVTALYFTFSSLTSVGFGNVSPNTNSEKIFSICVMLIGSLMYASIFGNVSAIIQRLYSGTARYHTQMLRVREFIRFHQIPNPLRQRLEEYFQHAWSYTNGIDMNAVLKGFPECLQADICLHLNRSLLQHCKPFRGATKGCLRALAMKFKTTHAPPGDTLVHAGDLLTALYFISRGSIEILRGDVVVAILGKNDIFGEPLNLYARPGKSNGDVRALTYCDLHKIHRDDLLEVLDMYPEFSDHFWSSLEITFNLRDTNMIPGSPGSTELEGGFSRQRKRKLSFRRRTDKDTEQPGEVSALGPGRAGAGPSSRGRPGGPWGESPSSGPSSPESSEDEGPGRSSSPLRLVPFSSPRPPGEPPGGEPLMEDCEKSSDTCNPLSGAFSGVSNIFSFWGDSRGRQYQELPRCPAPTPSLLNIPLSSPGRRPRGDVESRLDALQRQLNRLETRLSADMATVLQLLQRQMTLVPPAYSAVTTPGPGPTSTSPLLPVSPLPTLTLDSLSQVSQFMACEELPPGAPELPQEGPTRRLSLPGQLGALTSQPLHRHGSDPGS
Chain of CYP2C8 (P10632 whole entry): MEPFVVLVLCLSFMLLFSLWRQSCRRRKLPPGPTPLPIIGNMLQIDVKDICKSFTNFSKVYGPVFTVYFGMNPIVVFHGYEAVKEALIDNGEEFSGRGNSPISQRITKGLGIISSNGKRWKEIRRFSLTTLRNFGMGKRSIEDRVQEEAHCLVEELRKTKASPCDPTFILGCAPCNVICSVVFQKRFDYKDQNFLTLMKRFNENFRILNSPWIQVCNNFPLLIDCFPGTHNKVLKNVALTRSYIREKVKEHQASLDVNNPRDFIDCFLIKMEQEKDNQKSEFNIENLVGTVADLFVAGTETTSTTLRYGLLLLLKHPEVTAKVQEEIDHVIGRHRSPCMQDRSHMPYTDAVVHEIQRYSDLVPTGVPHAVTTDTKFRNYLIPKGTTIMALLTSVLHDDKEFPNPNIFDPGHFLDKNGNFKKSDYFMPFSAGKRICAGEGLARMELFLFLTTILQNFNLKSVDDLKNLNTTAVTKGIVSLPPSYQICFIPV

Which IC50 [1] does the source give for `CC(=O)[O][Pt]([NH2])([NH2])([Cl])([Cl])[O]C(=O)NCCCCCN1C(=O)C=CC1=O` [Compound 8] here?
Its IC50 is 680 nM.

What about the “Ultrafiltrate levels as share of the total platinum levels” value ([2]; both) of the same compound?
Its value is “approximately 1%”.

And the “RBC platinum concentrations, Day 21 relative to Day 1” value ([2]; 19 mg/kg)?
Its value is “did not result in significant accumulation of platinum in the RBCs”.

What about the “Mean maximal BW loss” value ([3]; 10 mg/kg) of the same compound?
Its value is 0.9%.

And the “Mean maximal BW loss” value ([3]; 15 mg/kg)?
The value was 3.2%.

And the hERG binding finding ([4]; 3 uM, conjugated to human serum albumin)?
The hERG binding finding was “no evidence for significant cardiovascular toxicity”.

What about the hERG binding finding ([4]; 10 uM, unconjugated to human serum albumin) of the same compound?
Its hERG binding finding is “no evidence for significant cardiovascular toxicity”.
